Data: patent US20250129021A1, “SMALL MOLECULE PROTEIN SYNTHESIS MODULATORS” (Interdict Bio, Inc., priority 2023, published 2025)
Where two headings read alike, the source gives them in different places.

Tests used:
MYC = assay: In vitro transcription-translation (IVTT) assay, MYC reporter; assay type: biochemical; settings: HeLa S3 lysate, 2 hrs at 30° C.
In short: (§1)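 Reporter: mCherry, P2A, then 3×FLAG-target peptide-sfGFP fusion, IRES-initiated; HeLa S3 lysate IVTT; cpd dilutions 30 μM−0.1 μM half-log in 100% DMSO (dilution-plate conc); DNA added last; 2 h, 30° C; PBS quench.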

CCND1 = assay: In vitro transcription-translation (IVTT) assay, CCND1 reporter; assay type: biochemical; settings: HeLa S3 lysate, sfGFP/mCherry ratio
In short: as §1

ALK = assay: In vitro transcription-translation (IVTT) assay, ALK reporter; assay type: biochemical; settings: HeLa S3 lysate, sfGFP/mCherry ratio, 2 hrs at 30° C.
In short: as §1

KRAS G12D = assay: In vitro transcription-translation (IVTT) assay, KRAS G12D reporter; assay type: biochemical; settings: HeLa S3 lysate, sfGFP/mCherry ratio, 2 hrs at 30° C.
In short: as §1

HEK 293T = assay: Cell viability (CellTiter-Fluor), HEK 293T; assay type: cell-based; settings: Homo sapiens, 24-72 hrs
Protocol: (§2) Count and dispense 2,000-10,000 cells per well (100 μL volume) in black 96-well tissue culture microplate and let cells adhere overnight. Add compound dissolved in 100% DMSO to each well as needed and incubate cells in standard culture conditions for 24-72 hrs. Final DMSO concentration in each well should be 0.1-0.5%. At the desired time point, gently aspirate compound containing media and replace with PBS to wash. Repeat wash step for 2 total washes. Remove PBS and add 100 μL CellTiter-Fluor reagent (Promega) reagent to each well. Seal plate and incubate 1 hr at room temperature with orbital shaking. Analyze fluorescence using plate reader to quantify viable cells compared with vehicle (DMSO) control.

HPAF-II = assay: Cell viability (CellTiter-Fluor), HPAF-II; assay type: cell-based; settings: Homo sapiens, 24-72 hrs
Protocol: as §2

LS411N = assay: Cell viability (CellTiter-Fluor), LS411N; assay type: cell-based; settings: Homo sapiens, LS-411N, 24-72 hrs
Protocol: as §2

MCF7 = assay: Cell viability (CellTiter-Fluor), MCF7; assay type: cell-based; settings: Homo sapiens, 24-72 hrs
Protocol: as §2

NCI-H1915 = assay: Cell viability (CellTiter-Fluor), NCI-H1915; assay type: cell-based; settings: 24-72 hrs
Protocol: as §2

BCL-2 = assay: In vitro transcription-translation (IVTT) assay, BCL-2 reporter; assay type: biochemical; settings: HeLa S3 lysate, sfGFP/mCherry ratio, 2 hrs at 30° C.
In short: as §1

MCL-1 = assay: In vitro transcription-translation (IVTT) assay, MCL-1 reporter; assay type: biochemical; settings: HeLa S3 lysate, sfGFP/mCherry ratio
In short: as §1

KLE = assay: Cell viability (CellTiter-Fluor), KLE; assay type: cell-based; settings: Homo sapiens, 24-72 hrs
Protocol: as §2

HEPG2 = assay: Cell viability (CellTiter-Fluor), HEPG2; assay type: cell-based; settings: Homo sapiens, 24-72 hrs
Protocol: as §2

CCNTB1 = assay: In vitro transcription-translation (IVTT) assay, CCNTB1 reporter; assay type: biochemical; settings: HeLa S3 lysate, sfGFP/mCherry ratio
In short: (§3)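 Cell-free HeLa S3 lysate reactions expressing sfGFP/mCherry reporter constructs ran 2 h at 30 °C with compound from half-log DMSO series (30 μM–0.1 μM as prepared), then were quenched with PBS. No-DNA background was subtracted, and the sfGFP/mCherry ratio was normalized to the no-drug control and fit for IC50.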

cGAS = assay: In vitro transcription-translation (IVTT) assay, cGAS reporter; assay type: biochemical; settings: HeLa S3 lysate, sfGFP/mCherry ratio
Protocol: (§4) In vitro transcription-translation assay setup: Each assay includes a master mix containing lysate and shared components, a 96-well plate containing compound titrations for testing, a 96-well DNA plate with reporter constructs to be tested, 96-well skirted PCR plates, and 96-well flat-bottom, black, fluorescent assay plates. Reaction materials setup: (A) Master mix—15 mL conical tube (3 mL of HeLa S3 Lysate described above; 0.6 mL of ThermoFisher Accessory Proteins (#88882); 1.2 ml of ThermoFisher Reaction Mix (#88882); 0.54 mL of nuclease-free Water); (B) 96-Well Master Mix+Compound Plate (Half-log dilutions (30 μM−0.1 μM) of 4 compounds of interest are prepared in 100% DMSO); 96-Well DNA Plate (Five DNA constructs are plated into single columns within the plate. Row 1 of the column contains nuclease free H2O, all other wells contain 110 ng/μL plasmid DNA). Reactions are started by mixing 155 μL of master mix and 3.5 μL of compound serial dilutions, then 9.1 μL of master mix+compound mixture is aliquoted across 5 96-well plates. Reactions begin with final addition of 2 μL of DNA for a 11.1 μL reaction volume in each well. The entire plate is sealed, and incubated for 2 hrs at 30° C. After 2 hrs, quench the assay using 45 μL of PBS, and transfer 50 μL to a flat-bottom black microplate Quantify the sfGFP and mCherry signals from each well on each plate, taking 3 reads of each plate, and perform data analysis below.
(§5) In vitro transcription-translation assay data analysis: Each plate is read three times in channels for both sfGFP and mCherry signals. The average signal across these 3 reads is then calculated for further analysis. Control wells containing no DNA reporter are subtracted from reporter wells in the same column to remove auto-fluorescence of the lysate. Then, the ratio of sfGFP/mCherry is calculated per well, and these ratios are averaged across the triplicate experiments on the same plate. Finally, the ratio of each titration concentration is normalized to the no drug control to create the normalized stalling metric. The error on this measurement is determined by propagating error through the averaging and normalization steps. Values are plotted and fit for IC50 determination for each test sequence and titration of compound.

STING = assay: In vitro transcription-translation (IVTT) assay, STING reporter; assay type: biochemical; settings: HeLa S3 lysate, sfGFP/mCherry ratio
Protocol: as §4, §5

JAK1 = assay: In vitro transcription-translation (IVTT) assay, JAK1 reporter; assay type: biochemical; settings: HeLa S3 lysate, sfGFP/mCherry ratio
Protocol: as §4, §5

NFKB1 = assay: In vitro transcription-translation (IVTT) assay, NFKB1 reporter; assay type: biochemical; settings: HeLa S3 lysate, sfGFP/mCherry ratio
In short: as §3

[1] = IVTT assay, MYC reporter, normalized sfGFP/mCherry ratio, half-log dilutions 30 μM-0.1 μM
[2] = IVTT assay, read-out: MCL1 IC50

Row | SMILES | IC50 (MYC; sfGFP/mCherry ratio) | IC50 (CCND1; 2 hrs at 30° C.) | IC50 (HEK 293T) | IC50 (HPAF-II) | IC50 (LS411N) | IC50 (MCF7) | IC50 (NCI-H1915) | IC50 (BCL-2) | IC50 (MCL-1; 2 hrs at 30° C.) | also measured
1 | COc1ccc(C[C@H]2NC[C@H](O)[C@H]2OC(=O)NC[C@H]2CCNC2)cc1 [V187686, (2R,3S,4S)-4-hydroxy-2-(4-methoxybenzyl)pyrrolidin-3-yl (((S)-pyrrolidin-3-yl)methyl)carbamate] | < 10 µM | 10 to 20 µM | ≥ 4 µM | ≥ 4 µM | ≥ 4 µM | 1 to 4 µM | ≥ 4 µM |  |  | IC50 (ALK): < 10 µM; IC50 (KRAS G12D): 10 to 20 µM
2 | COc1ccc(C[C@H]2NC[C@H](O)[C@H]2OC(=O)NCCNc2ncc[nH]2)cc1 [V187825, (2R,3S,4S)-4-hydroxy-2-[(4-methoxyphenyl)methyl]pyrrolidin-3-yl N-[2-(1H-imidazol-2-ylamino)ethyl]carbamate] | 20 to 30 µM | 10 to 20 µM | ≥ 4 µM |  |  | ≥ 4 µM |  | 20 to 30 µM | 10 to 20 µM | 
3 | COc1ccc(C[C@H]2NC[C@H](O)[C@H]2OC(=O)NCC[C@H]2CCNC2)cc1 [Cmpd V187879] | < 10 µM | < 10 µM | ≥ 4 µM |  |  | 1 to 4 µM |  | 10 to 20 µM | < 10 µM | 
4 | COc1ccc(C[C@H]2NC[C@H](O)[C@H]2OC(=O)NC[C@@H]2CCNC2)cc1 [V187685, (2R,3S,4S)-4-hydroxy-2-[(4-methoxyphenyl)methyl]pyrrolidin-3-yl N-[(3R)-pyrrolidin-3-ylmethyl]carbamate] | < 10 µM |  | ≥ 4 µM |  |  | 1 to 4 µM |  | 10 to 20 µM | < 10 µM | IC50 (KRAS G12D): 10 to 20 µM
5 | COc1ccc(C[C@H]2NC[C@H](O)[C@H]2OC(=O)NCCc2cnn[nH]2)cc1 [Cmpd V187783] | < 10 µM |  | 0.25 to 1 µM |  |  | 1 to 4 µM |  | < 10 µM | < 10 µM | 
6 | CNC(=O)CNC(=O)O[C@@H]1[C@@H](O)CN[C@@H]1Cc1ccc(OC)cc1 [V188017, (2R,3S,4S)-4-hydroxy-2-[(4-methoxyphenyl)methyl]pyrrolidin-3-yl N-[(methylcarbamoyl)methyl]carbamate] |  | 10 to 20 µM | 1 to 4 µM |  |  | 1 to 4 µM |  | 10 to 20 µM | < 10 µM | 
7 | COc1ccc(C[C@H]2NC[C@H](O)[C@H]2OC(=O)NCc2ccnc(N)c2)cc1 [V187988, (2R,3S,4S)-4-hydroxy-2-[(4-methoxyphenyl)methyl]pyrrolidin-3-yl N-[(2-aminopyridin-4-yl)methyl]carbamate] | < 10 µM | < 10 µM | 0.25 to 1 µM | 1 to 4 µM | 0.25 to 1 µM | 0.25 to 1 µM | 0.25 to 1 µM | < 10 µM | < 10 µM | IC50 (KLE): 0.25 to 1 µM; IC50 (HEPG2): ≥ 4 µM
8 | O=C(NCc1cccc(F)c1)O[C@@H]1[C@@H](O)CN[C@@H]1Cc1ccc(-c2cnc(C(F)(F)F)s2)cc1 [V192114, (2R,3S,4S)-4-hydroxy-2-({4-[2-(trifluoromethyl)-1,3-thiazol-5-yl]phenyl}methyl)pyrrolidin-3-yl N-[(3-fluorophenyl)methyl]carbamate] |  |  |  |  |  |  |  |  |  | IC50 (MYC; [1]): > 30 µM; IC50 (CCND1; IVTT assay): > 30 µM; IC50 (MCL-1; [2]): > 30 µM; IC50 (CCNTB1): > 30 µM; IC50 (cGAS): < 10 µM; IC50 (STING): > 30 µM; IC50 (JAK1): 10 to 20 µM; IC50 (NFKB1): < 10 µM
9 | COc1ccc(C[C@H]2NC[C@H](O)[C@H]2OC(=O)NCc2cc[nH]c(=O)c2)cc1 [V188053, (2R,3S,4S)-4-hydroxy-2-[(4-methoxyphenyl)methyl]pyrrolidin-3-yl N-[(2-oxo-1H-pyridin-4-yl)methyl]carbamate] | < 10 µM | < 10 µM | 1 to 4 µM | 1 to 4 µM | 1 to 4 µM | 1 to 4 µM | 1 to 4 µM |  | < 10 µM | IC50 (KLE): 1 to 4 µM
10 | O=C(NCc1cccc(C2CNC2)c1)O[C@@H]1[C@@H](O)CN[C@@H]1Cc1ccc(-c2cnco2)cc1 [V192154, (2R,3S,4S)-4-hydroxy-2-{[4-(1,3-oxazol-5-yl)phenyl]methyl}pyrrolidin-3-yl N-{[3-(azetidin-3-yl)phenyl]methyl}carbamate] |  |  |  |  |  |  |  |  |  | IC50 (MYC; [1]): < 10 µM; IC50 (CCND1; IVTT assay): < 10 µM; IC50 (MCL-1; [2]): < 10 µM; IC50 (CCNTB1): < 10 µM; IC50 (cGAS): < 10 µM; IC50 (STING): < 10 µM; IC50 (JAK1): < 10 µM; IC50 (NFKB1): < 10 µM
11 | COc1ccc(C[C@H]2NC[C@H](O)[C@H]2OC(=O)NCCn2ccnc2)cc1 [V187819, (2R,3S,4S)-4-hydroxy-2-[(4-methoxyphenyl)methyl]pyrrolidin-3-yl N-[2-(imidazol-1-yl)ethyl]carbamate] | < 10 µM | < 10 µM | ≥ 4 µM |  |  | 1 to 4 µM |  |  | < 10 µM | IC50 (ALK): < 10 µM
12 | COc1ccc(C[C@H]2NC[C@H](O)[C@H]2OC(=O)NCC[C@@H]2CCNC2)cc1 [V187878, (2R,3S,4S)-4-hydroxy-2-[(4-methoxyphenyl)methyl]pyrrolidin-3-yl N-{2-[(3S)-pyrrolidin-3-yl]ethyl}carbamate] | < 10 µM |  | ≥ 4 µM | ≥ 4 µM | 1 to 4 µM | 0.25 to 1 µM | ≥ 4 µM | 10 to 20 µM | < 10 µM | IC50 (KLE): ≥ 4 µM; IC50 (HEPG2): 1 to 4 µM
13 | COc1ccc(C[C@H]2NC[C@H](O)[C@H]2OC(=O)NCCNc2nccs2)cc1 [V187826, (2R,3S,4S)-4-hydroxy-2-[(4-methoxyphenyl)methyl]pyrrolidin-3-yl N-[2-(1,3-thiazol-2-ylamino)ethyl]carbamate] | < 10 µM | 20 to 30 µM | 1 to 4 µM |  |  | 1 to 4 µM |  | 20 to 30 µM | 10 to 20 µM | 
14 | COc1ccc(C[C@H]2NC[C@H](O)[C@H]2OC(=O)NCc2ccnnc2)cc1 [V187917, (2R,3S,4S)-4-hydroxy-2-[(4-methoxyphenyl)methyl]pyrrolidin-3-yl N-(pyridazin-4-ylmethyl)carbamate] | < 10 µM | < 10 µM | < 0.25 µM | 1 to 4 µM | 0.25 to 1 µM | 0.25 to 1 µM | 0.25 to 1 µM | < 10 µM | < 10 µM | IC50 (KLE): 0.25 to 1 µM; IC50 (HEPG2): 1 to 4 µM
15 | COc1ccc(C[C@H]2NC[C@H](O)[C@H]2OC(=O)NCCc2ccncc2C#N)cc1 [V187940, (2R,3S,4S)-4-hydroxy-2-[(4-methoxyphenyl)methyl]pyrrolidin-3-yl N-[2-(3-cyanopyridin-4-yl)ethyl]carbamate] | < 10 µM | < 10 µM | 0.25 to 1 µM |  |  | 1 to 4 µM |  | < 10 µM | < 10 µM | 
